Measured values taken from US8809386B2, “Use of dynamin ring stabilizers” (Children's Medical Research Institute, priority 2009, dated 2014).
pKd: −log10 of the molar value.

Columns and labels:
[1] = test system: truncated dynamin I construct known as GG2; assay: Basal GTPase activity of assembly-incompetent dynamin construct GG2; format: biochemical; details: FIG. 5
Text: FIG. 5 is a graph showing the basal GTPase activity of the truncated dynamin I construct known as GG2, containing only the GTPase domain linked to a small part of the GED domain (Chappie et al 2009). Unlike full length dynamin this construct is known to be unable to self-assemble or to form rings. Bis-T-22 and -23 and imminodyn-22 have no effect on the basal activity of this assembly-incompetent construct.
To verify that ring stabilizers require dynamin oligomerisation, a recombinant form of dynamin, called GG-2, which is dimeric yet is unable to self-associate into higher order oligomers (Chappie et al 2009) was tested. Ring stabilizers are unable to stimulate the basal activity of such constructs (FIG. 5).

[2] = test system: dynamin I; assay: Dynamin self-assembly assay, high speed centrifugation at decreasing NaCl; format: biochemical; details: dynamin 520 nM
Procedure: This dynamin self-assembly assay was performed with native dynamin ([…]) using the Hepes column buffer described above in Example 1.1, (with the addition of 1% DMSO as described above). Bis-T effects were measured by pre-incubating the dynamin with the indicated Bis-T concentrations for 10 min at room temperature (22° C.). NaCl concentrations were varied from a stock in 200 mM NaCl. After the incubation the tubes were transferred to a TLA120.2 rotor (Beckman) and centrifuged in a tabletop ultracentrifuge (Optima TLX, Beckman) at 100,000 g for 20 min, and the supernatants (S) and pellets (P) were collected, precipitated with trichloracetic acid, solubilised in SDS sample buffer and separated on SDS gels.
A block in ring disassembly should be manifested as an accumulation of rings in vitro. Dynamin self-assembles into rings in the absence of any cofactors when the buffer ionic strength is decreased (Song et al. 2004). To determine whether Bis-T compounds regulate dynamin-dynamin interactions a well-established method of high speed centrifugation in decreasing amounts of NaCl to collect rings in the pellet (Warnock et al. 1996) was used. Higher concentrations of dynamin (520 nM) and dynamin was visualized by Coomassie staining on SDS gels (FIG. 6). As reported by others, dynamin is in the supernatant at ≧40 mM NaCl, but self-assembled at ≦20 mM NaCl and is found in the pellet. […]

[3] = test system: Human lymphoblasts (which express dynamin II); assay: EM analysis of clathrin coated pits in human lymphoblasts; format: cell-based; details: 30 min (Bis-T-22 100 μM), FIG. 10A
Text: When vesicles are endocytosed via the clathrin-dependent pathway, they are well known to be internalised as omega shaped figures close to the plasma membrane with partially constricted and short necks. These can be detected by transmission electron microscopy (EM) at a low frequency.

[4] = test system: rat brain synaptosomes; assay: EM analysis of endocytic pits in KCl-depolarised rat brain synaptosomes; format: cell-based; details: 30 min (100 μM), depolarised with KCl, FIG. 10B
Text: When vesicles are endocytosed via the clathrin-dependent pathway, they are well known to be internalised as omega shaped figures close to the plasma membrane with partially constricted and short necks. These can be detected by transmission electron microscopy (EM) at a low frequency. […] In contrast to these observations, a dynamin ring stabilizer causes accumulation of clathrin coated pits in cells with two distinctive features: the vesicle necks are highly elongated and are encircled by electron dense rings. […] No rings or trapped vesicles were detected when the synaptosomes were unstimulated (FIG. 10B top). This mimics the in vitro observations on purified dynamin I described earlier which forms single rings (FIG. 9).

[5] = biological target: T1, full length dynamin I (UniProt Q05193); assay: Basal dynamin GTPase activity in the absence of PS liposomes or other template (ring stabilizer activity); format: biochemical, sheep; details: 0.2 μM dyn1, 7 μM compound, 10 μM Gsn-F-actin complexes, FIG. 18
T1 construct: rows headed: basal rate of GTP hydrolysis of dynamin
T1 sequence (Q05193 1-864): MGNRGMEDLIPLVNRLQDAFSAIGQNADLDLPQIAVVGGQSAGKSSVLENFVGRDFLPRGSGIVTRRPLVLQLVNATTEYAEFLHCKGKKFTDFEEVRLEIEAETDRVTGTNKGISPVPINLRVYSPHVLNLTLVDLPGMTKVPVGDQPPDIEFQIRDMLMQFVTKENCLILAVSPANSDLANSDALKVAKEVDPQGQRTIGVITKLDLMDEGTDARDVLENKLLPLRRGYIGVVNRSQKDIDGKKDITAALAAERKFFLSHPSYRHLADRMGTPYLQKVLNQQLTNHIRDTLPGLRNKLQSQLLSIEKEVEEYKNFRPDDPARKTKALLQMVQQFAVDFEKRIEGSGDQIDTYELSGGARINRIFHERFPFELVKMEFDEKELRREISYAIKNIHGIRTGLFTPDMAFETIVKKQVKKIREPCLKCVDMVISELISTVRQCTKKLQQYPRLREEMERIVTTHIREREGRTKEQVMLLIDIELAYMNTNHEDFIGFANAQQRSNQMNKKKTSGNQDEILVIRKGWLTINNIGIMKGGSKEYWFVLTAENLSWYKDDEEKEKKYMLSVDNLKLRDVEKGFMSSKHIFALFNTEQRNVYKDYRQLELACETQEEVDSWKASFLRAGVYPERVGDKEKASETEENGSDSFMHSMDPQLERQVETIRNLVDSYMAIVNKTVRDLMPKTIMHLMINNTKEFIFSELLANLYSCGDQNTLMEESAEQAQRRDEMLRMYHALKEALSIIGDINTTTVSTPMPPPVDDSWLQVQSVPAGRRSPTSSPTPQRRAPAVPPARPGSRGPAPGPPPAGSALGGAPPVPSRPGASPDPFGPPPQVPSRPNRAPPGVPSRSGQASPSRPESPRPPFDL

[6] = biological target: T2, full length dynamin I (Ovis aries, UniProt A0ACI6NZN1); assay: as above; format: biochemical, sheep; details: for stimulation of basal dynamin GTPase activity in the presence of Tween-80: dynI 200 nM, Tween-80 0.06%, Bis-T series 10 μM, all other compounds 30 μM, FIG. 11B
T2 sequence (A0ACI6NZN1 1-864): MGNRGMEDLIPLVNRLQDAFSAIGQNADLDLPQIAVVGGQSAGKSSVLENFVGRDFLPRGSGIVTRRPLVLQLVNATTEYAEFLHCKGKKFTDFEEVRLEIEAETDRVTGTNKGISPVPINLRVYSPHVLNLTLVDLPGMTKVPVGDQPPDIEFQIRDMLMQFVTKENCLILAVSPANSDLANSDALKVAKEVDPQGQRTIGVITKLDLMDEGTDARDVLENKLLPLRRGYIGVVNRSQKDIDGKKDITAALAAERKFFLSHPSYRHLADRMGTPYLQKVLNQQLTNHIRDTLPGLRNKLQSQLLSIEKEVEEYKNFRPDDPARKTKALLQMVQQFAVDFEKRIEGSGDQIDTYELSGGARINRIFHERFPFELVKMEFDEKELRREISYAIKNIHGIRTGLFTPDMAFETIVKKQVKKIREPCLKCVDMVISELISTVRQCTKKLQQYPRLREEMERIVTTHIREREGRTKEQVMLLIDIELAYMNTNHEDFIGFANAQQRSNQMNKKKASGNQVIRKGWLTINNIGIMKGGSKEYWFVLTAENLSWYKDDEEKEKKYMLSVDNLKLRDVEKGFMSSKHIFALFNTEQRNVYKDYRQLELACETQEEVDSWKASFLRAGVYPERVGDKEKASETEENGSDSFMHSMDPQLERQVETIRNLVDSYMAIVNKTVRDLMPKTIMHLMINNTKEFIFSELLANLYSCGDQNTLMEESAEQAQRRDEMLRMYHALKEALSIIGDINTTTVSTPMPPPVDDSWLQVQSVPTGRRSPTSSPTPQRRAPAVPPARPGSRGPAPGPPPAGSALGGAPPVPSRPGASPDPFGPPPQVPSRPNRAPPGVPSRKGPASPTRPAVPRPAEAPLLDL
Procedure: The compounds were present at the indicated concentrations and the concentration causing half-maximal stimulation is shown as the EC50.
Dynamin I (50 nM) GTPase stimulation was performed in the absence of the detergent Tween-80 (and in the absence of any known activators such as PS liposomes, nanotubes or microtubules). […] The GTPase activity of dynamin I (dynI; 200 nM) was measured in the absence of lipid activators (and in the presence of standard Tween-80 at 0.06%).
A compound (whether a dynamin inhibitor or not) can be identified as a dynamin ring stabilizer by assaying for its capacity to promote accumulation of dynamin rings and/or to inhibit disassembly of dynamin rings. […] GTPase activity of dynamin or dynamin rings can be determined by any conventionally known method (e.g., see Quan and Robinson. 2005). Such conditions include: (a) the absence of a helix assembly template such as liposomes, microtubules or lipid nanotubes, and (b) higher concentrations of dynamin than normally required for detecting template stimulated activity, typically 50-500 nM dynamin instead of 1-20 nM. Thus, ring stabilizer activity can be identified by the ability to stimulate the GTPase activity of full length dynamin in the absence of other stimulatory factors (such as PS liposomes, microtubules or nanotubes). Additional defining characteristics are available but are not essential if the first condition has been met. One such additional characteristic of ring stabilizer activity is that the stimulated activity occurs after a lag phase of a few minutes, rather than being an immediate activation in vitro. […] Such conditions typically mean utilising 50-200 nM dynamin in the absence of a template as distinct from higher concentrations where self-assembly is known to occur without the addition of a dynamin ring stabilizer.
Next, a time course experiment of Bis-T-23 stimulation of dynamin GTPase (FIG. 3) was conducted. […] The lag phase is thought to indicate the time required for dynamin to assemble as rings.

[7] = biological target: F-actin; assay: Actin co-sedimentation assay, dynamin-F-actin binding (Scatchard plot); details: 5 μM F-actin, centrifugation at 100,000×g, FIG. 14
Procedure: Increasing concentrations of dynamin (free) were added to 5 μM of F-actin. After centrifugation at 100,000×g proteins were separated on SDS-PAGE and bands were analyzed using densitometry.
To determine whether dynamin affects the actin cytoskeleton, the question of whether dynamin might directly bind filamentous actin (F-actin) was tested. In particular, an actin co-sedimentation assay was performed in which F-actin sediments under high-speed centrifugation. If dynamin interacts with F-actin it would be expected to co-sediment, and thus be present in the pellet fraction. In the presence of F-actin, but not in its absence, the majority of dynamin was found in the pellet (FIG. 12, lanes 2 and 14). […] The Kd of dynamin for actin was approximately 0.4 μM, which is similar to the affinities of other actin binding proteins such as α-actinin 4 for actin (Weins et al. 2005).
Next, the actin binding site was mapped to a region between amino acids 399 and 444 amino acids of dynamin II (dyn2) (FIG. 13). As predicted for an actin binding domain (Van et al. 1996), this region contains several positively charged amino acids conserved in all dynamin gene products from yeast to mammals. It is also alternatively spliced within different mammalian dynamin isoforms (called variant a and b in dynamins I and II) (see FIG. 13, SEQ ID No. 1-4). Site-directed mutagenesis was performed on conserved, charged residues within this actin binding domain to generate the putative ‘loss of function’ mutants, dynK/E (SEQ ID No. 9) and dynK/A (SEQ ID No. 10), and a putative ‘gain of function’ mutant, dynE/K (SEQ ID No. 11) (FIG. 13). […] All three mutant proteins had wild-type kinetic properties with respect to the basal and stimulated rate of GTP hydrolysis, indicating proper folding.

## N#C/C(=C\c1ccc(O)c(O)c1)C(=O)NCCCNC(=O)/C(C#N)=C/c1ccc(O)c(O)c1 [Bis-T-22, 2-cyano-N-{3-[2-cyano-3-(3,4-dihydroxyphenyl)-acryloylamino]-propyl}-3-(3,4-dihydroxyphenyl)-acrylamide]
[1]
  effect on basal GTPase activity of GG2: no effect
[2]; 100 μM, intermediate salt concentrations
  dynamin ring assembly (dynamin in pellet): increased ring assembly
[2]; 300 μM, fixed 40 mM NaCl
  dynamin ring assembly (dynamin in pellet): promoted all dynamin to form rings
[3]
  clathrin coated pits by EM: massive accumulation in all cells of clathrin coated pits with highly elongated necks
[4]
  trapped endocytic pits by EM: trapped endocytic pits were detected that were encircled by a single electron dense ring
[5]
  basal rate of GTP hydrolysis of dynamin: stimulates dynamin's basal rate of GTP hydrolysis

## O=C(N/N=C/c1ccc(O)c(O)c1)c1cc2ccccc2cc1O [Dynasore, 3-hydroxynaphthalene-2-carboxylic acid (3,4-dihydroxybenzylidene) hydrazide, reference compound]
[6]; Dynamin I 50 nM, no Tween-80, no activators, FIG. 11A
  stimulation of basal dynamin GTPase activity in the absence of Tween-80: stimulated basal dynamin GTPase activity to similar extents as Bis-T-23
[6]
  stimulation of basal dynamin GTPase activity in the presence of Tween-80: failed to stimulate basal GTPase activity

## O=C(N/N=C/c1cc(O)c(O)cc1O)c1cc2ccccc2cc1O [Dyngo-4a]
[6]
  stimulation of basal dynamin GTPase activity in the presence of Tween-80: effective

## N=c1oc2c(O)cccc2cc1C(=O)NCCCNC(=O)c1cc2cccc(O)c2oc1=N [Iminodyn 20]
[6]; absence of PS, Table 2
  ring stabilizer activity: no ring stabilizer activity

## N=c1oc2c(O)c(O)ccc2cc1C(=O)NCCCNC(=O)c1cc2ccc(O)c(O)c2oc1=N [Iminodyn 22]
[1]
  effect on basal GTPase activity of GG2: no effect

## dynE/K: ‘gain of function’ dynamin mutant in the actin binding domain (SEQ ID No. 11) (RTGLFTPDLAFEAIVKKQVVKLKKPCLKCVDLVIQKLISTVRQCTS; listed as Mus musculus)
[7]
  pKd: 7.52

## dynK/A: ‘loss of function’ dynamin mutant in the actin binding domain (SEQ ID No. 10) (RTGLFTPDLAFEAIVAAQVVALAEPCLACVDLVIQELISTVRQCTS; listed as Mus musculus)
[7]
  pKd: 5.55

## dynK/E: ‘loss of function’ dynamin mutant in the actin binding domain (SEQ ID No. 9) (RTGLFTPDLAFEAIVEEQVVELEEPCLECVDLVIQELISTVRQCTS; listed as Mus musculus)
[7]
  pKd: 5.77
